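Cells were grown in 96-well plates and exposed to each compound for 48 hours at five concentrations; endpoints were interpolated linearly between bracketing concentrations, or set to the highest concentration if not reached. TGI: concentration producing complete growth inhibition.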
Tests used:
Assay in all cases: DTP human tumour cell line panel, 48 h
[1] = system: 786-0 renal
[2] = system: A498 renal
[3] = system: A549 NSCLC
[4] = system: ACHN renal
[5] = system: BT-549 breast
[6] = system: CAKI-1 renal
[7] = system: COLO 205 colon
[8] = system: DU-145 prostate
[9] = system: EKVX NSCLC
[10] = system: HCC-2998 colon
[11] = system: HCT-116 colon
[12] = system: HCT-15 colon
[13] = system: HL-60(TB) leukemia
[14] = system: HOP-62 NSCLC
[15] = system: HOP-92 NSCLC
[16] = system: HS 578T breast
[17] = system: HT29 colon
[18] = system: IGROV1 ovarian
[19] = system: KM12 colon
[20] = system: LOX IMVI melanoma
[21] = system: M14 melanoma
[22] = system: MALME-3M melanoma
[23] = system: MCF7 breast
[24] = system: MDA-MB-231 breast
[25] = system: MDA-MB-435
[26] = system: MDA-N
[27] = system: MOLT-4 leukemia
[28] = system: NCI-H226 lung
[29] = system: NCI-H23 lung
[30] = system: NCI-H522 lung
[31] = system: NCI/ADR-RES ovarian
[32] = system: OVCAR-3 ovarian
[33] = system: OVCAR-5 ovarian
[34] = system: OVCAR-8 ovarian
[35] = system: PC-3 prostate
[36] = system: RPMI-8226 leukemia
[37] = system: RXF 393 renal
[38] = system: SF-268 CNS
[39] = system: SF-295 CNS
[40] = system: SF-539 CNS
[41] = system: SK-MEL-2 melanoma
[42] = system: SK-MEL-28 melanoma
[43] = system: SK-MEL-5 melanoma
[44] = system: SK-OV-3 ovarian
[45] = system: SN12C renal
[46] = system: SNB-19 CNS
[47] = system: SNB-75 CNS
[48] = system: SR leukemia
[49] = system: SW-620 colon
[50] = system: T-47D breast
[51] = system: TK-10 renal
[52] = system: U251 CNS
[53] = system: UACC-257 melanoma
[54] = system: UACC-62 melanoma
[55] = system: UO-31 renal
[56] = system: CCRF-CEM leukemia
[57] = system: K-562 leukemia
[58] = system: NCI-H460 lung
[59] = system: OVCAR-4 ovarian

Measured: TGI

COC(=O)C1=CO[C@@H](OC2OC(CO)C(O)C(O)C2O)[C@@H]2[C@H](C)[C@@H](O)[C@@H](O)[C@]12O (stereo partly specified)
not listed: [56] | [57] | [58] | [59]
> 100 µM: all other assays above

Nc1cc(N)cc(Cc2ccccc2)c1
not listed: [36] | [47] | [54]
> 100 µM: all other assays above
